From patent publication US20230286929A1, “AROMATIC BRIDGED RING AMIDE DERIVATIVES FOR THE TREATMENT AND PROPHYLAXIS OF HEPATITIS B VIRUS INFECTION” (Hoffmann-La Roche Inc., priority 2020, published 2023)

Experiments:
Format in all cases: cell-based
HBsAg = experiment: PHH HBV natural infection assay, HBsAg (alphalisa); details: Hepatitis B virus, Hepatocyte, 72 h, read-out: HBsAg IC50
Method: (§1) Detailed procedures regarding primary human hepatocyte (PHH) HBV natural infection assay are described as below. One tube of frozen PHH (10 million cells) is thawed in 37° C. water bath and then transferred to 20 mL of PHH thawing medium (Sigma, InVitroGRO HT Medium, Cat. S03319) with gently mixing. The cells were then centrifuged at […] for 5 min, the supernatant was discarded and the tube was refilled with 25 mL of PHH plating medium (Sigma, InVitroGRO CP Medium, Cat. 503317). The tube was shaken very gently to re-suspend all cells. 50 μl of cells were transferred to each well 384-well collagen I coated plate with appropriate liquid handling equipment, e.g. Integra VIAFLO384 or Agilent Bravo. The cells were then cultured for 24 hours in a cell incubator. For HBV infection, after PHH attachment on the culture plate, the plating medium was removed and replenished with PHH culture medium containing HBV virus. The PHH culture medium was prepared with Dulbecco's Modified Eagle Medium (DMEM)/F12 (1:1 in volume ratio) containing 10% fetal bovine serum (Gibco, Cat. 10099141), […] (Gibco, Cat. PHG03I1L), 20 ng/mL dexamethasone (Sigma, Cat. D4902-100 mg), 250 ng/mL human recombinant insulin (Gibco, Cat. 41400045) and 100 U/mL penicillin. HBV virus at 200 genome equivalent (GE) per cell with 4% PEG8000 (Sigma, Cat. P1458) containing culture medium were added to the PHH culture medium for infection. The cells were then cultured for 24 hours in cell incubator. Then the cell culture supernatant was removed. The HBV-infected PHH were cultured with sandwich culture method with PHH culture medium containing 1% DMSO and 0.25 mg/mL matrix gel for 72 hours. The supernatant was then refreshed with PHH culture medium containing different concentrations of testing compounds for two times with 72-hour interval. At the end of treatment, the supernatant was collected for viral markers measurements, including HBsAg, HBeAg, HBV DNA and cytotoxicity. HBsAg and HBeAg were detected using alphalisa method using their specific antibodies. For HBV DNA detection, HBV DNA Quantitative Fluorescence Diagnostic Kit (Sansure Biotech Inc.) was used following the manufacture's protocol. Cytotoxicity was determined using Cell Counting Kit-8 (CCK8, Dojindo Molecular Technologies, Inc.).
(§2) The compounds of the present invention were tested for their capacity to inhibit HBsAg and HBeAg as described herein.

HBeAg = experiment: PHH HBV natural infection assay, HBeAg (alphalisa); details: Hepatitis B virus, Hepatocyte, 72 h, read-out: HbeAg IC50
Method: as §1, §2

[1] = Cytotoxicity in PHH natural infection assay (Cell Counting Kit-8); details: HBV-infected primary human hepatocytes, CCK8
Method: as §1

Compound: CS(=O)(=O)c1cccc(C(=O)NC23CC(c4nc5cc(Cl)ccc5o4)(C2)C3)c1 [Example 22, N-[3-(5-chloro-1,3-benzoxazol-2-yl)-1-bicyclo[1.1.1]pentanyl]-3-methylsulfonyl-benzamide]
- IC50 (HBsAg): 3 µM
- IC50 (HBeAg): 2.33 µM
- CC50 at 144 h [1]: > 100 µM

Compound: O=C(NC12CC(c3nc4cc(Cl)ccc4o3)(C1)C2)c1ccnc(C(F)(F)F)c1 [Example 23, N-[3-(5-chloro-1,3-benzoxazol-2-yl)-1-bicyclo[1.1.1]pentanyl]-2-(trifluoromethyl)pyridine-4-carboxamide]
- IC50 (HBsAg): 2.05 µM
- IC50 (HBeAg): 1.7 µM
- CC50 at 144 h [1]: 96.9 µM

Compound: O=C(NC12CC(c3nc4cc(Cl)ccc4o3)(C1)C2)c1cncc(C(F)(F)F)c1 [Example 24, N-[3-(5-chloro-1,3-benzoxazol-2-yl)-1-bicyclo[1.1.1]pentanyl]-5-(trifluoromethyl)pyridine-3-carboxamide]
- IC50 (HBsAg): 5.23 µM
- IC50 (HBeAg): 8.82 µM
- CC50 at 144 h [1]: > 100 µM

Compound: O=C(NC12CC(c3nc4cc(Cl)ccc4o3)(C1)C2)c1ccc(C(F)(F)F)nc1 [Example 25, N-[3-(5-chloro-1,3-benzoxazol-2-yl)-1-bicyclo[1.1.1]pentanyl]-6-(trifluoromethyl)pyridine-3-carboxamide]
- IC50 (HBsAg): 8.71 µM
- IC50 (HBeAg): 4.36 µM
- CC50 at 144 h [1]: > 100 µM

Compound: O=C(NC12CC(c3nc4cc(Cl)ccc4o3)(C1)C2)c1cnc(C(F)(F)F)nc1 [Example 26, N-[3-(5-chloro-1,3-benzoxazol-2-yl)-1-bicyclo[1.1.1]pentanyl]-2-(trifluoromethyl)pyrimidine-5-carboxamide]
- IC50 (HBsAg): 6.29 µM
- IC50 (HBeAg): 3.67 µM
- CC50 at 144 h [1]: 88.2 µM

Compound: O=C(NC12CC(c3nc4cc(Cl)ccc4o3)(C1)C2)c1ccc(C(F)(F)F)nn1 [Example 27, N-[3-(5-chloro-1,3-benzoxazol-2-yl)-1-bicyclo[1.1.1]pentanyl]-6-(trifluoromethyl)pyridazine-3-carboxamide]
- IC50 (HBsAg): 3.85 µM
- IC50 (HBeAg): 1.12 µM
- CC50 at 144 h [1]: > 100 µM

Compound: O=C(NC12CC(c3nc4cc(Cl)ccc4o3)(C1)C2)c1cc(Cl)ccc1Cl [Example 28, 2,5-dichloro-N-[3-(5-chloro-1,3-benzoxazol-2-yl)-1-bicyclo[1.1.1]pentanyl]benzamide]
- IC50 (HBsAg): 9.97 µM
- IC50 (HBeAg): 10.1 µM
- CC50 at 144 h [1]: > 100 µM

Compound: CS(=N)(=O)c1cccc(C(=O)NC23CC(c4nc5cc(Cl)ccc5o4)(C2)C3)c1 (stereo not drawn) [Example 29, N-[3-(5-chloro-1,3-benzoxazol-2-yl)-1-bicyclo[1.1.1]pentanyl]-3-(methylsulfonimidoyl)benzamide]
- IC50 (HBsAg): 3.85 µM
- IC50 (HBeAg): 3.06 µM
- CC50 at 144 h [1]: > 100 µM

Compound: O=C(NC12CC(c3nc4cc(Cl)ccc4o3)(C1)C2)C1CC2(C1)CS(=O)(=O)C2 [Example 30, N-[3-(5-chloro-1,3-benzoxazol-2-yl)-1-bicyclo[1.1.1]pentanyl]-2,2-dioxo-2lambda6-thiaspiro[3.3]heptane-6-carboxamide]
- IC50 (HBsAg): 9.82 µM
- IC50 (HBeAg): 7.77 µM
- CC50 at 144 h [1]: > 100 µM

Compound: CCCC(=O)NS(=O)(=O)c1ccc(C(=O)NC23CC(c4nc5cc(Cl)ccc5o4)(C2)C3)o1 [Example 31, 5-(butanoylsulfamoyl)-N-[3-(5-chloro-1,3-benzoxazol-2-yl)-1-bicyclo[1.1.1]pentanyl]furan-2-carboxamide]
- IC50 (HBsAg): 3.63 µM
- IC50 (HBeAg): 4.78 µM
- CC50 at 144 h [1]: > 100 µM

Compound: CS(=O)(=O)c1ccc(C(=O)NC23CC(c4nc5ccc(Cl)cc5o4)(C2)C3)o1 [Example 32, N-[3-(6-chloro-1,3-benzoxazol-2-yl)-1-bicyclo[1.1.1]pentanyl]-5-methylsulfonyl-furan-2-carboxamide]
- IC50 (HBsAg): 5.67 µM
- IC50 (HBeAg): 3.46 µM
- CC50 at 144 h [1]: > 100 µM

Compound: O=C(NC12CC(c3nc4ccc(Cl)cc4o3)(C1)C2)c1ccc(S(=O)(=O)C2CC2)o1 [Example 33, N-[3-(6-chloro-1,3-benzoxazol-2-yl)-1-bicyclo[1.1.1]pentanyl]-5-cyclopropylsulfonyl-furan-2-carboxamide]
- IC50 (HBsAg): 0.792 µM
- IC50 (HBeAg): 0.58 µM
- CC50 at 144 h [1]: > 100 µM

Compound: O=C(NC12CC(c3nc4ccc(Cl)cc4o3)(C1)C2)c1ccc(S(=O)(=O)CC2CC2)o1 [Example 34, N-[3-(6-chloro-1,3-benzoxazol-2-yl)-1-bicyclo[1.1.1]pentanyl]-5-(cyclopropylmethylsulfonyl)furan-2-carboxamide]
- IC50 (HBsAg): 3.54 µM
- IC50 (HBeAg): 2.79 µM
- CC50 at 144 h [1]: 95.4 µM

Compound: CS(=N)(=O)c1ccc(C(=O)NC23CC(c4nc5ccc(Cl)cc5o4)(C2)C3)o1 (stereo not drawn) [Example 35, N-[3-(6-chloro-1,3-benzoxazol-2-yl)-1-bicyclo[1.1.1]pentanyl]-5-(methylsulfonimidoyl)furan-2-carboxamide]
- IC50 (HBsAg): 4.29 µM
- IC50 (HBeAg): 3.51 µM
- CC50 at 144 h [1]: > 100 µM

Compound: CS(=O)(=O)c1cccc(C(=O)NC23CC(c4nc5ccc(Cl)cc5o4)(C2)C3)c1 [Example 36, N-[3-(6-chloro-1,3-benzoxazol-2-yl)-1-bicyclo[1.1.1]pentanyl]-3-methylsulfonyl-benzamide]
- IC50 (HBsAg): 2.25 µM
- IC50 (HBeAg): 2.5 µM
- CC50 at 144 h [1]: > 100 µM

Compound: O=C(NC12CC(c3nc4ccc(Cl)cc4o3)(C1)C2)c1ccnc(C(F)(F)F)c1 [Example 37, N-[3-(6-chloro-1,3-benzoxazol-2-yl)-1-bicyclo[1.1.1]pentanyl]-2-(trifluoromethyl)pyridine-4-carboxamide]
- IC50 (HBsAg): 4.17 µM
- IC50 (HBeAg): 3.63 µM
- CC50 at 144 h [1]: > 100 µM

Compound: O=C(NC12CC(c3nc4ccc(Cl)cc4o3)(C1)C2)c1ccnc(S(=O)(=O)C2CC2)c1 [Example 38, N-[3-(6-chloro-1,3-benzoxazol-2-yl)-1-bicyclo[1.1.1]pentanyl]-2-cyclopropylsulfonyl-pyridine-4-carboxamide]
- IC50 (HBsAg): 6.65 µM
- IC50 (HBeAg): 4.48 µM
- CC50 at 144 h [1]: > 10 µM

Compound: CS(=O)(=O)Cc1ccc(C(=O)NC23CC(c4nc5ccc(Cl)cc5o4)(C2)C3)o1 [Example 39, N-[3-(6-chloro-1,3-benzoxazol-2-yl)-1-bicyclo[1.1.1]pentanyl]-5-(methylsulfonylmethyl)furan-2-carboxamide]
- IC50 (HBsAg): 0.648 µM
- IC50 (HBeAg): 0.75 µM
- CC50 at 144 h [1]: > 100 µM

Compound: CS(=N)(=O)Cc1ccc(C(=O)NC23CC(c4nc5ccc(Cl)cc5o4)(C2)C3)o1 (stereo not drawn) [Example 40, N-[3-(6-chloro-1,3-benzoxazol-2-yl)-1-bicyclo[1.1.1]pentanyl]-5-[(methylsulfonimidoyl)methyl]furan-2-carboxamide]
- IC50 (HBsAg): 6.99 µM
- IC50 (HBeAg): 4.07 µM
- CC50 at 144 h [1]: > 100 µM

Compound: CS(=O)(=O)Cc1ccc(C(=O)NC23CC(c4nc5cc(Cl)cnc5o4)(C2)C3)o1 [Example 41, N-[3-(6-chlorooxazolo[5,4-b]pyridin-2-yl)-1-bicyclo[1.1.1]pentanyl]-5-(methylsulfonylmethyl)furan-2-carboxamide]
- IC50 (HBsAg): 5.7 µM
- IC50 (HBeAg): 6.21 µM
- CC50 at 144 h [1]: > 100 µM

Compound: O=C(NC12CC(c3nc4cc(Cl)cnc4o3)(C1)C2)c1ccnc(C(F)(F)F)c1 [Example 42, N-[3-(6-chlorooxazolo[5,4-b]pyridin-2-yl)-1-bicyclo[1.1.1]pentanyl]-2-(trifluoromethyl)pyridine-4-carboxamide]
- IC50 (HBsAg): 8.83 µM
- IC50 (HBeAg): 10.6 µM
- CC50 at 144 h [1]: 92 µM

Compound: CS(=O)(=O)Cc1ccc(C(=O)NC23CC(c4nc5cnc(Cl)cc5o4)(C2)C3)o1 [Example 43, N-[3-(6-chlorooxazolo[4,5-c]pyridin-2-yl)-1-bicyclo[1.1.1]pentanyl]-5-(methylsulfonylmethyl)furan-2-carboxamide]
- IC50 (HBsAg): 7.62 µM
- IC50 (HBeAg): 5.55 µM
- CC50 at 144 h [1]: > 10 µM

Compound: CS(=O)(=O)c1ccc(C(=O)NC23CC(c4nc5cccc(Cl)c5o4)(C2)C3)o1 [Example 44, N-[3-(7-chloro-1,3-benzoxazol-2-yl)-1-bicyclo[1.1.1]pentanyl]-5-methylsulfonyl-furan-2-carboxamide]
- IC50 (HBsAg): 8.93 µM
- IC50 (HBeAg): 3.1 µM
- CC50 at 144 h [1]: > 100 µM

Compound: CS(=O)(=O)c1ccc(C(=O)NC23CC(c4nc5ccc(F)cc5o4)(C2)C3)o1 [Example 45, N-[3-(6-fluoro-1,3-benzoxazol-2-yl)-1-bicyclo[1.1.1]pentanyl]-5-methylsulfonyl-furan-2-carboxamide]
- IC50 (HBsAg): 8.63 µM
- IC50 (HBeAg): 4.48 µM
- CC50 at 144 h [1]: > 100 µM

Compound: CS(=O)(=O)c1ccc(C(=O)NC23CCC(c4nc5cc(Cl)ccc5o4)(CC2)C3)o1 [Example 46, N-[4-(5-chloro-1,3-benzoxazol-2-yl)norbornan-1-yl]-5-methylsulfonyl-furan-2-carboxamide]
- IC50 (HBsAg): 7.15 µM
- IC50 (HBeAg): 4.48 µM
- CC50 at 144 h [1]: 76.6 µM
